Results on three molecules are retold here after patent US20250123282A1, “METHODS FOR EVALUATION AND TREATMENT OF TYROSINE KINASE INHIBITOR (TKI)-RESISTANT ACUTE MYELOID LEUKEMIA” (LOMA LINDA UNIVERSITY, priority 2021, published 2025).

One test relates to primary AML BMMNC. Briefly: Ex vivo combination treatment of primary AML BMMNC (FACS, imaging, qPCR). The format is cell-based, human. Conditions: newly diagnosed AML, Patient #5; 80 nM GILT, 50 uM BAY11-7821. As for the experimental part: (§1) Whether targeting the MIF-CXCR2 signaling pathway would effectively treat AML blasts were investigated. First, the combination of GILT with ribosomal protein S19 (RPS19) on MV4-11 blasts was tested in vitro. RPS19, a MIF inhibitor, has been reported to suppress cisplatin-activated MIF-CD74-NFκB signaling pathway in acute kidney injury. […] The combination of 80 nM GILT with 50 uM SB225002, a CXCR2-inhibitor (CXCR2-I) on MV4-11 blasts in vitro were examined. […] The anti-leukemic effect of combining GILT with CXCR2-I on primary BMMNC ex vivo were examined. […] There may be alternative cytokine pathways compensating for the defect of MIF-CXCR2 pathways.
The combination of 80 nM GILT and 50 uM BAY11-7821 (a NFκB-I) was tested as a novel therapeutic approach for AML.
Next, the anti-leukemic effect of the combination was examined on primary BMMNC from refractory AML patients (Patient #7, Table 4).
Human Samples. AML bone marrow (BM) mononuclear cells (BMMNC) (Patients #1-7, Table 4) were obtained from the City of Hope National Medical Center (COHNMC). All donor patients signed an informed consent form. Sample acquisition was approved by the Institutional Review Boards at the LLUMC and the COHNMC in accordance with an assurance filed with and approved by the Department of Health and Human Services, and it met all requirements of the Declaration of Helsinki.
(§2) For MIF in vitro experiments, different doses of MIF were added to 1 ml of 1×10^6 MV4-11 cells or RAW264.7 cells for each experimental group in 24-well plates. Two days after the one dose treatment, cells were then collected for either analyses by FACS and qPCR. As combination agents to treat blasts in vitro or ex vivo, one dose of 80 nM GILT with one dose of different inhibitors were added to 1 ml of 1×10^6 MV4-11 cells or 1 ml of 0.5-1×10^6 primary AML BMMNC for each experimental group in 24-well plates. Dose-dependent experiments of CXCR2 inhibitor and NFκB inhibitor with or without 80 nM GILT were performed. […] Three days after the one dose treatment, cells were then collected for either analyses by FACS and qPCR.
(§3) Flow Cytometry (FACS). Cells were harvested and examined for the expression of cell surface biomarkers (CD) and intracellular proteins by multichromatic FACS as previously described. About 1×10^4˜10^6 cells in 100 μl FACS buffer (PBS containing 1% FBS and 0.05% sodium azide) were stained with various fluorescence-conjugated antibodies specific for the desired cell surface proteins at 4° C. for 30 min. The surface-stained cells were then fixed and permeabilized using the appropriate reagents (e.g. the BD Pharmingen Cytofix/Cytoperm buffer) and stained with different fluorescence-conjugated antibodies specific for the desired intracellular proteins at 4° C. for 2 hours in the permeabilizing buffer (e.g. the BD Perm/Wash buffer). Concentrations of the Abs were used per the manufacturers' recommendations. Finally, the cells were washed twice in the permeabilizing buffer and twice in the FACS buffer before being analyzed on the BD FACSAria II. Data was analyzed using the FlowJo software (Tree Star Inc., Ashland, OR).
RNA Isolation and Real-Time Polymerase Chain Reaction (qPCR) analysis. MV4-11 and MOLM-14 cells were cultured with the presence of TKI drugs for 72 hours or re-plated 28 days after the treatment of TKI drugs. Cells were isolated for RNA isolation and qPCR analysis as previously described. Total RNA was isolated using the RNeasy Micro Kit (Qiagen) according to the manufacturer's instruction. First-strand cDNA was synthesized using the SuperScript III Reverse Transcriptase (Invitrogen; Life Technologies). With an Applied Biosystems 7900HT Real-Time PCR machine, qPCR was performed and analyzed using known primers for the specific markers. The PCR conditions were 10 minutes at 95° C. followed by 40 cycles of 10 seconds at 95° C. and 15 seconds at 60° C. The relative expression level of a gene was determined using the ΔΔCt method and normalized to GAPDH.
Background: Real-time PCR tracks product formation cycle by cycle.

The test system of another test is MV4-11 blasts. Briefly: GILT combined with MIF inhibitor or CXCR2 inhibitor on MV4-11 blasts in vitro (FACS). The test is classed as cell-based, human. Conditions: dose-dependent experiments with or without 80 nM GILT. The protocol:
as §1, §2, §3

A further test concerns MV4-11. Conditions: 100 nM, 72-hour treatment in vitro; cited from earlier work.
Test [1] has as its system MV4-11 cells. Briefly: FACS time course of CD44+pBAD+ and Ki67+CD33+CD44+ populations in TKI-treated MV4-11. The test is classed as cell-based, human.
Description: (§4) To follow the cell fate of TKI-treated MV4-11 and MOLM-14, culturing of blasts were continued by performing medium change every 2-3 days. […] The BAD protein is a pro-apoptotic member of the BCL-2 gene family, which is involved in initiating apoptosis. Dephosphorylated BAD is pro-apoptotic by binding BCL-2 and inactivating BCL-2, while phosphorylated BAD (pBAD) is anti-apoptotic by leaving BCL-2 free to inhibit BAX-triggered apoptosis.
(§5) Small Molecular Inhibitors and in vitro & ex vivo Treatment. […] The dose of 80 nM for the four TKIs was selected based on their dose-dependent cytotoxicity in previous reports. […] Both GILT and QUIZ were reported to start to suppress the tumorigenic clustering and c-Kit at the dose of 80 nM. […] The combination of 5 μM 5-Azacitidine (AZA) and 80 nM 1α,25-Dihydroxyvitamin D3 (VD3) was added to the experimental group similar to the previous report. As combination agents to treat blasts in vitro, one dose of 80 nM GILT with one dose of either 100 nM Venetoclax (BCL2 inhibitor), 10 μM (R)-Lisofylline (STAT4 inhibitor), 100 nM AZD1208 (PIM inhibitor), 500 nM PF-06826647 (TYK2 inhibitor), or 500 nM AT9283 (JAK2/3 inhibitor) were added to 1 ml of 1×10^6 cells for each experimental group in 24 well plates. Three days after the one dose treatment, cells were then collected for either analyses by FACS and qPCR, or re-plated into 24 well plates for continued culture. At different time points, re-plated cells were collected for analyses by FACS and qPCR. Medium change was performed every 2-3 days.
as §3

Test [2] deals with MOLM-14 cells. Briefly: FACS of TKI-treated MOLM-14 cells in vitro (viable blasts, pBAD). The test is classed as cell-based, human. Conditions: 3 days after the treatment. As for the experimental part:
(§6) The AML cells were analyzed at different time points after exposure to TKI (3 days, 10 days, 20 days, and 28 days). […] After 3 days, FACS of the surface markers and intracellular proteins, including CD14, CD33, CD44, and Ki67, were performed. FIGS. 1A-1E depicts therapeutic effect of different TKIs on MV4-11 and MOLM-14 cells in vitro (N=6). […] The circles indicate the group of viable blasts located in a FACS plot and green arrows indicate the dying tendency of blasts which will become positive for viability dye during the next few days. FIGS. 1C and 1D are graphical representations of the cumulative FACS percentage data of viable MV4-11 and MOLM-14 cells. *P<0.05. […]
as §3, with “Cells were harvested and examined for the expression of cell surface biomarkers (CD) and intracellular proteins by multichromatic FACS as previously described.” left out, “Concentrations of the Abs were used per the manufacturers' recommendations.” left out, “Data was analyzed using the FlowJo software (Tree Star Inc., Ashland, OR).” left out

In test [3] the test system is MOLM-14 cells. Description: Phase-bright imaging of re-growth of TKI-treated MOLM-14. The test is classed as cell-based, human. To be noted: 10 days after TKI treatment.
Description: as §4
as §5, with “At different time points, re-plated cells were collected for analyses by FACS and qPCR. Medium change was performed every 2-3 days.” left out

Test [4] deals with MV4-11 cells. Description: Phase-bright imaging of re-growth of TKI-treated MV4-11. The format is cell-based, human.
Description: as §4, §5
Imaging Acquisition. Phase-bright images were taken using an Olympus 1X71 inverted microscope and were processed using an Olympus cellSens Dimension 1.15 Imaging Software.

Test [5] has as its system MV4-11 cells. Description: FACS of TKI-treated MV4-11 cells in vitro (viable blasts, Ki67, pBAD). The format is cell-based, human. To be noted: 3 days after the treatment. As for the experimental part:
as §6
as §3, with “Cells were harvested and examined for the expression of cell surface biomarkers (CD) and intracellular proteins by multichromatic FACS as previously described.” left out, “Concentrations of the Abs were used per the manufacturers' recommendations.” left out, “Data was analyzed using the FlowJo software (Tree Star Inc., Ashland, OR).” left out

The test system of test [6] is RAW264.7 (a macrophage cell line). Description: Recombinant human MIF added to RAW264.7 cultures (FACS Ki67). Conditions: 5 ng/ml MIF; 2 days. The format is cell-based. The protocol: To examine the role of MIF in the proliferation of AML blasts, different doses of recombinant human MIF peptides were added to the cell cultures of MV4-11 (AML blast cell line). […] To investigate how MIF affects immune cells, MIF was tested on RAW264.7 (a macrophage cell line). […] The findings are consistent with a previous report that primary AML blasts constitutively express MIF, stimulating bone marrow mesenchymal cells to release CXCL8 (IL-8), a ligand that also binds to CXCR2, to sustain blasts' proliferation. In addition, CXCL1/5/8 were routinely and highly released (a median level >1000 pg/mL) in the supernatants of culturing naïve AML patient cells ex vivo. […]
as §3, with “Cells were harvested and examined for the expression of cell surface biomarkers (CD) and intracellular proteins by multichromatic FACS as previously described.” left out, “Concentrations of the Abs were used per the manufacturers' recommendations.” left out, “Data was analyzed using the FlowJo software (Tree Star Inc., Ashland, OR).” left out

Test [7] relates to MV4-11 cells. Briefly: Recombinant human MIF added to MV4-11 cultures (FACS Ki67, qPCR). The format is cell-based. The protocol:
To examine the role of MIF in the proliferation of AML blasts, different doses of recombinant human MIF peptides were added to the cell cultures of MV4-11 (AML blast cell line). […] To investigate how MIF affects immune cells, MIF was tested on RAW264.7 (a macrophage cell line). […] The findings are consistent with a previous report that primary AML blasts constitutively express MIF, stimulating bone marrow mesenchymal cells to release CXCL8 (IL-8), a ligand that also binds to CXCR2, to sustain blasts' proliferation. In addition, CXCL1/5/8 were routinely and highly released (a median level >1000 pg/mL) in the supernatants of culturing naïve AML patient cells ex vivo.
For MIF in vitro experiments, different doses of MIF were added to 1 ml of 1×10^6 MV4-11 cells or RAW264.7 cells for each experimental group in 24-well plates. Two days after the one dose treatment, cells were then collected for either analyses by FACS and qPCR. […]
as §3, with “Cells were harvested and examined for the expression of cell surface biomarkers (CD) and intracellular proteins by multichromatic FACS as previously described.” left out, “Concentrations of the Abs were used per the manufacturers' recommendations.” left out
RNA Isolation and Real-Time Polymerase Chain Reaction (qPCR) analysis. […] With an Applied Biosystems 7900HT Real-Time PCR machine, qPCR was performed and analyzed using known primers for the specific markers. […] The relative expression level of a gene was determined using the ΔΔCt method and normalized to GAPDH.

Setting [8] is: MV4-11, 10 days after TKI treatment.
Setting [9] is: MV4-11, 20 days after TKI treatment.

As to `Cc1ccc(S(=O)(=O)C=CC#N)cc1` [NFκB-I, BAY11-7082 (BAY11-7821)], in the test with primary AML BMMNC, the “percentage of Ki67+CD33+ proliferating blasts” value was 25% and the “percentage of viable CD33+CD13+ primary blasts” value was 0.14%. Also, the “most effective dose on MV4-11 based on the FACS analyses” value in the test on MV4-11 blasts is 50 µM.

In the case of `CNC(=O)c1cc(Oc2ccc(NC(=O)Nc3ccc(Cl)c(C(F)(F)F)c3)cc2)ccn1` [SORA, Sorafenib], in the test on MV4-11, the “apoptosis and cell cycle arrest in MV4-11” value is “significantly induce”. Moreover, the “population of viable CD44+pBAD+ cells” value in the test on MV4-11 cells [1] (setting [8]) was 0.24%; with MV4-11 cells [1] (setting [9]), 0.8%. Also, the “population of viable Ki67+CD33+CD44+ cells” value with MV4-11 cells [1] (setting [8]) amounted to 2.54%; in the test with MV4-11 cells [1] (setting [9]), 1.62%; in the test with MV4-11 cells [1] (MV4-11, 28 days after TKI treatment), 2.82%. Further, the “pBAD expression in MOLM-14 (FACS)” value with MOLM-14 cells [2] is recorded as “significant increase”. Besides, the “re-growth / tumorigenic clusters of MOLM-14” value in the test on MOLM-14 cells [3] is “grew confluent”. The “newly formed blast clusters (morphology)” value in the test with MV4-11 cells [4] (3 days after TKI treatment) is “observed”. Besides, the “re-growth / tumorigenic clusters of MV4-11” value in the test on MV4-11 cells [4] (10 days after TKI treatment) was “grew confluent”. Moreover, the “pBAD expression in MV4-11 (FACS)” value in the test on MV4-11 cells [5] is reported as “significant increase”.

B1: MIF: recombinant human macrophage migration inhibitory factor (Peprotech 300-69) (protein, UniProt P14174 2-115, looked up)
Macrophage migration …: PMFIVNTNVPRASVPDGFLSELTQQLAQATGKPPQYIAVHVVPDQLMAFGGSSEPCALCSLHSIGKIGGAQNRSYSKLLCGLLAERLRISPDRVYINYYDMNAANVGWNNSTFA
Turning to B1, the “RAW264.7 proliferation (Ki67)” value in test [6] is given as “effectively suppressed”. The “MV4-11 proliferation (percentage of Ki67+)” value in the test on MV4-11 cells [7] (5 ng/ml MIF, the lowest dose, 2 days) is recorded as “induce MV4-11's proliferation”. The “gene expressions of CXCL1, CXCL5, CXCL8 (IL-8), CDK4 and CYCLIN E1” value with MV4-11 cells [7] (MV4-11, different doses of MIF, qPCR) is on record as “effectively induce”. Moreover, in the test with MV4-11 cells [7] (exogenous recombinant MIF in vitro), the “CXCR2 expression in MV4-11 blasts” value is given as “effectively induced”.
